# Measured values reported in patent US20050096360A1, “Inhibitors of semicarbazide-sensitive amine oxidase (SSAO) and VAP-1 mediated adhesion useful for treatment of diseases” (priority 2003, published 2005).
# Counter-ions that a name gives are not always drawn.
# Legend:
# SSAO = test: IC100 concentrations of SSAO inhibitors used in the adhesion assay; type: biochemical; details: FIG. 7 legend
# Text: FIG. 7 depicts the effect of blockage of SSAO/VAP-1 on binding between peripheral blood mononuclear cells (PBMCs) and high endothelial cells (HEC). FIG. 7A is a control experiment showing the effect of various compounds used for treatment on the adhesion of PBMCs to mock-transfected high endothelial cells; a non-treated control is included for comparison (MNT). FIG. 7B is a control experiment showing the effect of various compounds used for treatment on the adhesion of PBMCs to high endothelial cells transfected with VAP-1; a non-treated control is included for comparison (VNT).
# (§1) These studies were repeated using the adhesion assay as described above to evaluate the inhibitors of the invention. Adhesion blockers used included an anti-human VAP-1 monoclonal antibody (Serotec, Oxford, UK), neuramidase (a sialidase, because SSAO/VAP-1 is a sialoglycoprotein; Sigma), and several function-blocking antibodies to rat adhesion molecules (CD31-PECAM, CD54-ICAM-1, […]-P Selectin). […] Antibodies (10 μg/ml) and neuramidase (5 mU) were incubated with the HECs for 30 min at 37° C.; excess antibody was washed away prior to the addition of the labeled PBMCs. Small-molecule inhibitors were pre-incubated the same way at IC100 concentrations, but the amounts present in the supernatant were not washed away to preserve the IC100 concentration during the adhesion step.
# [1] = in vivo
# [2] = test system: adhesion of human PBMCs to rat HEC transfected with full-length human SSAO/VAP-1; test: In vitro adhesion of PBMCs to SSAO/VAP-1-transfected high endothelial cells; type: cell-based; details: inhibitors at IC100 concentrations, antibody 10 μg/ml; 3 hr at 37° C.
# Procedure: The studies in this Example were carried out in order to determine whether SSAO/VAP-1 transfected into endothelial cells retained the adhesion function and whether it played any role in the adhesion of freshly isolated human PBMCs to these cells. Moreover, the studies were also designed to determine whether blocking of SSAO/VAP-1 would have an impact on the level of adhesion between these two cell types. Adhesion assays were performed using cells labeled with the fluorescent dye Calcein-AM (Molecular Probes, OR, USA) as per the manufacturer's instructions. Briefly, rat lymph node high endothelial cells (HEC; isolation and culture was described in Ager, A. (1987) J. Cell Sci. 87: 133) were plated overnight in 96-well plates (2,000 cells/well). PBMCs (peripheral blood mononuclear cells) (1×10^7) were labeled with 1 ml of 10 μM Calcein-AM for 1 hr at 37° C., washed three times with RPMI, and added to the 96 well plates containing monolayers of HEC cells mock-transfected or transfected with full-length human SSAO/VAP-1 (60,000 PBMCs were plated per well containing 2,000 HEC cells). Adhesion was carried out for 3 hr at 37° C. Non-adherent cells were removed by washing three times with RPMI and fluorescence was measured in a fluorescence plate reader at an excitation wavelength of 485 nm and emission wavelength of 530 nm. Several controls were included, such as HEC cells and PBMCs (labeled and unlabeled) alone.
# as §1
# recombinant human MAO-B = target: T1, recombinant human MAO-B (Homo sapiens, UniProt P27338); test: Inhibition of MAO-B activity, colorimetric; type: biochemical; details: for Specificity for SSAO vs. MAO-B: ratio IC50 MAO-B to IC50 SSAO
# T1 construct: purchased BD Biosciences (MA, USA)
# T1 sequence (P27338 1-520): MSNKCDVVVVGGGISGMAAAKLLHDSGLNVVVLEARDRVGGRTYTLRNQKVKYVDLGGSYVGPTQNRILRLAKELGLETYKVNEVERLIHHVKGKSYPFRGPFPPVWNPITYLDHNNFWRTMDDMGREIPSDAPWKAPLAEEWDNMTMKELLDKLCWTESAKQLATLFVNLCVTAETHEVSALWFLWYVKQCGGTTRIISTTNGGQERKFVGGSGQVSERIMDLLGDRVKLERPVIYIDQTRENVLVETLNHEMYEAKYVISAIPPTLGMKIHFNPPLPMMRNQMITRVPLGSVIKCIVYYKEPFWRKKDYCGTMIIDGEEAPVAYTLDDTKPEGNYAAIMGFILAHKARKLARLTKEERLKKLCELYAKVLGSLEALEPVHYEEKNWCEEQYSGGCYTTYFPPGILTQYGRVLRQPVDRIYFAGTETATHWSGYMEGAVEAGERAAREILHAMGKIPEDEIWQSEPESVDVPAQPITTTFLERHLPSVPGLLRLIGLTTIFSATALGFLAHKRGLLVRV
# Procedure: The specificity of the different SSAO inhibitors was tested by determining their ability to inhibit MAO-A and MAO-B activities in vitro. Recombinant human MAO-A and human MAO-B enzymes were obtained from BD Biosciences (MA, USA). […] A pre-determined amount of inhibitor diluted in 0.2 M potassium phosphate buffer, pH 7.6, was added to each well, if required. […] Controls lacked inhibitor. The following agents were then added to a final reaction volume of 200 μl in 0.2 M potassium phosphate buffer, pH 7.6: 0.04 mg/ml of MAO-A or 0.07 mg/ml MAO-B enzyme, 15 μl of 10 mM tyramine substrate (for MAO-A), or 15 μl 100 mM benzylamine substrate (for MAO-B), and 50 μl of freshly made chromogenic solution (as above). The plates were incubated for 60 min at 37° C. The increase in absorbance, reflecting MAO activity, was measured at 490 nm using microplate spectrophotometer (Power Wave 40, Bio-Tek Inst.). Inhibition was presented as percent inhibition compared to control after correcting for background absorbance and IC50 values calculated using GraphPad Prism software.
structure (smiles),measurement,setting,value
"C=C(CNN)c1ccccc1 [Example 2, Hydrochloride]",IC100 (SSAO),SSAO,150 nM
same,bioavailability after intravenous and intraperitoneal administration,[1],readily bioavailable
same,number of PBMCs adherent to SSAO/VAP-1 transfected HECs,[2],reduced
same,IC50,recombinant human MAO-B,100 µM
same,Specificity for SSAO vs. MAO-B,recombinant human MAO-B,"2,900"
"C=C(CNN)c1ccc(F)cc1.Cl [Example 8, N-[2-(4′-fluorophenyl)-allyl]-hydrazine Hydrochloride]",IC100 (SSAO),SSAO,250 nM
same,bioavailability after intravenous and intraperitoneal administration,[1],readily bioavailable
same,number of PBMCs adherent to SSAO/VAP-1 transfected HECs,[2],reduced
same,IC50,recombinant human MAO-B,81 µM
same,Specificity for SSAO vs. MAO-B,recombinant human MAO-B,"2,500"
"Cl.NNC/C(=C/F)c1ccccc1 [Example 10, (E)-1-fluoro-2-phenyl-3-hydrazinopropene Hydrochloride]",bioavailability after intravenous and intraperitoneal administration,[1],readily bioavailable
same,IC50,recombinant human MAO-B,0.65 µM
same,Specificity for SSAO vs. MAO-B,recombinant human MAO-B,10
